Patent publication EP1542016A1, “PUMA, phosphorylated p53 and p38 map kinase as markers for HIV-1-induced apoptosis in circulating T cells of infected patient” (Institut Gustave Roussy, priority 2003, dated 2005)

Assays:
[1] = tested on: p53; experiment: Phosphorylation of p53 (p53S46P, p53S15P) in Env-elicited syncytia; format: cell-based; conditions: 36 h coculture, SB203580, SB202190, SB202474 100 nM, LY294002 1 µM, PD98059 5 µM, anti-sense HIPK2 100 nM, Fig. 10
Experimental: Figures 10A and 10C. […] HeLa Env and HeLa CD4 cells were cocultured for 36h in the presence of the indicated agents followed by the determination of the frequency of p53S46P+ syncytia. Results are means of three independent experiments.
Figure 10B. […] Syncytia were generated as in figure 10A, after transfection with anti-sense HIPK2 phosphorothioate oligonucleotides (100 nM) or a scrambled control olignonucleotide (Co.), followed by immunofluorescence detection of p53S46P.
(§1) Transfection with pcDNA3.1 vector only, or p38 DN plasmids (gift by Roger Davis), or HPLC-purified anti-sense HIPK2 phosphorothioate oligonucleotides (100 nM) and control were transfected with Lipofectamine (Invitrogen) into HeLa CD4 cells, 24 h before co-culture with HeLa Env cells. Transfection with pcDNA3.1 vector only or a p53-responsive enhanced green fluorescent (GFP) plasmid (kind gift from Klas Wiman) was performed 24 hours before coculture of HeLa CD4 and HeLa Env cells. The frequency of GFP-expressing cells was assessed by cytofluorometry, on a FACS Vantage (Becton Dickinson) equipped with a 100 µm nozzle, allowing for the analysis of relatively large cells.

[2] = tested on: Env-elicited syncytia; format: cell-based
Experimental: (§2) HeLa/U937 cell co-cultures were performed at different ratios (6). U937 or Jurkat cells were cultured with recombinant gp120 protein (500 ng/ml).

[3] = tested on: p53; format: cell-based; conditions: syncytia, 24 hours; SN50 20 µM, roscovitin 1 µM; Fig. 3B
Experimental: The frequency of GFP-expressing cells was assessed by cytofluorometry, on a FACS Vantage (Becton Dickinson) equipped with a 100 µm nozzle, allowing for the analysis of relatively large cells.
as §1

[4] = tested on: Env-elicited syncytia; experiment: Karyogamy and cyclin B accumulation in Env-elicited syncytia; format: cell-based; conditions: SN50 20 µM, roscovitin 1 µM; Fig. 3D
Experimental: Figure 3D. […] Syncytia were treated with various drugs as in B, and the frequency of karyogamic cells was scored.
as §2

[5] = tested on: Env-induced syncytia; conditions: reference (5); cited from earlier work

CCc1nc(-c2ccc(OC)cc2)[nH]c1-c1ccncc1 [SB202474]
frequency of p53S46P+ syncytia (p53S46P) ([1]; 500 mM caffeine): not

Cn1c(=O)c2c(ncn2C)n(C)c1=O [caffeine]
propensity of syncytia to undergo apoptosis [2]: did not reduce | frequency of p53S46P+ syncytia (p53S46P) ([1]; caffeine): no effect

COc1cccc(-c2cc(=O)c3ccccc3o2)c1N [PD98059]
frequency of p53S46P+ syncytia (p53S46P) ([1]; 500 mM caffeine): failed to affect

Oc1ccc(-c2nc(-c3ccc(F)cc3)c(-c3ccncc3)[nH]2)cc1 [SB202190]
frequency of p53S46P+ syncytia (p53S46P) ([1]; 500 mM caffeine): strongly reduced

CC[C@H](CO)Nc1nc(NCc2ccccc2)c2ncn(C(C)C)c2n1 [roscovitine]
p53-dependent transcription (p53-inducible GFP construct) [3]: inhibited | emergence of karyogamic syncytia (karyogamy) [4]: inhibiting | syncytium-dependent cell death [5]: blocked
